Source: patent US20080220471A1, “Vectors and Methods Using Same” (Genentech, Inc., priority 2005, published 2008)
Entries after “also recorded” stand apart in the source; their conditions may differ.

How the values were obtained:
BRAF = BRAF knockdown in melanoma cell clones (immunoblot densitometry, quantitative PCR); assay type: cell-based, human; conditions: melanoma cell clones expressing inducible BRAF shRNA
Description: FIG. 10: Inducible knockdown of BRAF expression prevents melanoma tumor growth. (A). Schematic representation of a retroviral vector for tetracycline/doxycycline-inducible synthesis of shRNA. The Tet-repressor is constitutively expressed from the β-actin promoter and H1 RNA polymerase III promoter-driven transcription is thereby repressed in the absence of Dox by binding of the TetR protein to the Tet-responsive element sequence located immediately downstream of the TATA box. Addition of Dox results in dissociation of the TetR protein and derepression of the shRNA transcriptional unit. TATA, TATA box; TRE, Tet-responsive element; TetR, Tet-repressor protein; IRES, internal ribosomal entry site; PURO, puromycin resistance gene; LTR, long terminal repeat. B. Experimental validation of BRAF knockdown in melanoma cell lines. […] Lysates were then analyzed by immunoblotting. […]
We generated stable cells that expressed the inducible shRNA retroviral vector shown in FIG. 10A (based on pHUSH-GW). […] In the uninduced state, cells expressing the inducible hairpins were not altered in their baseline growth properties and no discernable background expression could be detected (data not shown). […] BRAF knockdown was reversible and time-dependent, with the maximal mRNA depletion detected 2 days post induction and the corresponding protein depletion occurring at day 3.

LOX-IMVI tumors = test: LOX-IMVI inducible shRNA subcutaneous xenograft; assay type: in vivo; conditions: for tumor growth: 2 mg/ml Dox plus 5% sucrose in drinking water, start at 100-150 mm^3
Procedure: (§1) Six- to 8-week-old female athymic nu/nu mice or scid-beige mice were purchased from Charles River Laboratories. To assay for BRAF role in subcutaneous tumor models, mice were injected in the right flank with either 3×10^6 human LOX-IMVI or 1×10^7 human A375 TASK121-shRNA containing cell clones in 200 μL phosphate-buffered saline (PBS). When tumors reached a mean volume of 100-150 mm^3 the mice with similarly sized tumors were grouped into treatment cohorts. Mice received 5% sucrose only or 5% sucrose plus 1-2 mg/ml doxycycline for control and knockdown cohorts, respectively. All water bottles were changed 3 times per week. Tumors were measured with calipers and mice weighed twice per week. Mice whose tumors reach 2000 mm^3 were euthanized. At the end of the dosing study, or as indicated, appropriate tumor samples were taken. Each treatment group consisted of 7-10 mice and results are presented as mean tumor volume ±standard deviation (FIGS. 10C-E).

[1] = test system: A375M-luc/shRNA-BRAF cells; test: A375M-luc systemic (metastatic) tumor model, survival and bioluminescence; assay type: in vivo, scid-beige mice; conditions: 1 mg/ml Dox in drinking water (Dox-mediated BRAF knockdown); i.v. 4×10^5 A375M-luc/shRNA-BRAF cells
Procedure: To evaluate the efficacy of TASK121 knockdown in this model, cohorts of mice with similarly increasing tumor burden were divided into treatment groups. Scid-beige mice were injected intraperitoneally with […] 200 mg/kg D-luciferin (Biotium, Hayward, Calif.) and anesthetized using isoflurane. During image acquisition in a light-tight box, the animal was maintained on isoflurane via nose cone, and body temperature was maintained using a warming pad. Bioluminescence images were acquired using a cooled intensified charge-coupled device camera in an in vivo imaging system (Xenogen, Alameda, Calif.). Image acquisition times were about 1 minute. Images were processed by co-registering a reference image with a thresholded bioluminescence data image.
For metastatic tumor models, female scid-beige mice were injected intravenously with 50 μL PBS containing 4×10^5 A375M-luc shRNA cell clones. Tumor progression was monitored by weekly bioluminescence imaging for luciferase and mice were monitored daily for survival. At least 9 mice were used for each cohort. […] This is a promising strategy to inhibit certain metastatic tumors.

tumor = conditions: Teicher et al. 2002; cited from earlier work
A375 tumors = test: A375 inducible shRNA subcutaneous xenograft; assay type: in vivo, athymic nu/nu mice; conditions: 2 mg/ml Dox in drinking water
Procedure: as §1

[2] = test system: pHUSH shGL3 clone B11 tumors; test: Tumor volume of pHUSH shGL3 clone B11 tumors at each Dox concentration; assay type: in vivo, mice; conditions: luciferase-targeting shRNA
Procedure: FIG. 6: (A) The relative change in mean bioluminescence at each time point and treatment condition (n=5 mice per doxycycline dose). […] In addition to the luciferase expression analysis, tumor volume measurements were recorded for the pHUSH shGL3 clone B11 at each concentration of doxycycline.
To determine whether Dox or shRNA expression influenced tumor growth in vivo, tumor volume measurements were recorded for the tumors at each concentration of Dox.

TetR protein = test: Western analysis of TetR protein expression in transiently transfected 293T cells; assay type: cell-based; conditions: transient transfection, compared to wildtype TetR coding sequence
Procedure: To confirm that codon optimization of the TetR coding region increased expression of the TetR protein, Western analysis was performed. Briefly, plasmids containing the retroviral backbone comprising either wild type TetR (WT) or the codon optimized TetR (OPT) were transiently transfected into 293T cells using lipofectin (commercially available from GIBCO-BRL, Gaithersburg, Md.). Cell lysates were prepared by addition of 50 mM HEPES pH 7.4, 100 mM NaCl, 50 mM NaF, 5 mM B-glycerophosphate, 2 mM EGTA, 1 mM Na vanadate, 1% TX100 to a cell pellet, resolved on a 4-12% acrylamide gel and transferred to a PVDF membrane. Membranes were sequentially probed with Mouse α-TetR (1:5000; MolBiTec) and Rabbit α-Tubulin-HRP (1:5000, Santa Cruz Biotech, Santa Cruz, Calif.). […] “Ev” signifies negative control using retroviral vector lacking a shRNA cassette.

[3] = test system: pGL3-mu-p53 (murine p53 sequences); test: Luciferase-based transient co-transfection comparing shRNA and miRNA vectors against p53; assay type: cell-based; conditions: p53-1 sequence, higher transfection ratios
Description: FIG. 15: Luciferase-based transient co-transfection experiments compared shRNA and miRNA inducible expression vector performance. A. Comparison of H1-shRNA and CMV-miR vectors corresponding to murine p53 sequences transfected at 7.5:1, 5:1 and 2.5:1 shRNA:pGL3-mu-p53. B. The removal of the EmGFP leader rendered miR-p53-1 non-functional at a co-transfection ratio of 10:1.
In order to compare the efficacy of shRNA versus miRNA design, two effective miRNAs directed against p53 were converted to H1-shRNAs by identifying the 21-22 nt active siRNA within the miRNA scaffold and then by converting these active siRNAs back to N19 shRNAs. In addition, we examined the effect of having a linker sequence upstream of the miRNA. The following oligonucleotides were used in this study: […]

C[C@H]1c2cccc(O)c2C(=O)C2=C(O)[C@]3(O)C(=O)C(C(N)=O)=C(O)[C@@H](N(C)C)[C@@H]3[C@@H](O)[C@@H]21 [Dox, 1-dimethylamino-2,4-a,5,7,12-pentahydroxy-11-methyl-4,6-dioxo-1,4a,11,11a,12,12a-hexahydrotetracene-3-carboxamide]
Dox IC50 for suppression of BRAF protein levels (BRAF): approximately 5 ng/ml | body weight between treatment groups (LOX-IMVI tumors; 2 mg/ml Dox plus 5% sucrose vs 5% sucrose): no difference in body weight | lethality or weight loss (LOX-IMVI tumors; 2 mg/ml Dox via drinking water, LOX-IMVI and A375 xenograft experiments): No lethality or weight loss was observed | lower threshold for in vivo expression of the shRNA (LOX-IMVI tumors; pHUSH vector system, drinking water): ~0.02 mg/mL | median survival [1]: 33.4 days

Cl.Cn1cc(C2=C(c3cn(C4CCN(Cc5ccccn5)CC4)c4ccccc34)C(=O)NC2=O)c2ccccc21 [317615-HCL]
anti-tumor effect (tumor): anti-tumor effect

B1: GFP control shRNA: EGFP shRNA (SEQ ID NO:17/18) control hairpin in pHUSH (nucleic acid)
sense: GATCCCCAGATCCGCCACAACATCGATTCAAGAGATCGATGTTGTGGCGGATCTTGTTTTTTGGAAA
antisense: AGCTTTTCCAAAAAACAAGATCCGCCACAACATCGATCTCTTGAATCGATGTTGTGGCGGATCTGGG
tumor growth (A375 tumors): no discernable effect on tumor growth; also recorded: did not affect tumor growth kinetics

B2: Luciferase control shRNA: shRNA targeting the luciferase coding region (SEQ ID NO:9 / 15) in pHUSH (nucleic acid)
sense: GATCCCCCTTACGCTGAGTACTTCGATTCAAGAGATCGAAGTACTCAGCGTAAGTTTTTTGGAAA
antisense: AGCTTTTCCAAAAAACTTACGCTGAGTACTTCGATCTCTTGAATCGAAGTACTCAGCGTAAGGGG
tumor growth (LOX-IMVI tumors): did not affect tumor growth kinetics | tumor growth (LOX-IMVI tumors; listed as control shRNA directed against Luciferase): continued to increase in size | influence on tumor growth in vivo (tumor volume) [2]: does not influence tumor growth in vivo

B3: codon optimized TetR: TetR coding region codon optimized for mammalian expression (SEQ ID NO:1) (nucleic acid)
DNA: ATGTCCAGACTGGATAAGTCCAAGGTGATTAATTCCGCTCTGGAACTCCTGAACGAGGTCGGCATCGAGGGACTGACCACACGGAAGCTGGCTCAGAAACTCGGCGTCGAACAGCCTACCCTCTACTGGCATGTCAAAAATAAGAGAGCCCTCCTGGACGCCCTGGCTATCGAGATGCTGGACAGACACCACACCCACTTCTGCCCCCTGGAAGGCGAATCCTGGCAGGATTTCCTCCGGAACAACGCTAAAAGCTTTAGATGCGCCCTCCTCAGCCATAGAGACGGAGCTAAAGTGCACCTGGGAACCCGGCCTACAGAAAAACAGTACGAGACACTGGAAAACCAGCTCGCTTTCCTCTGCCAACAAGGCTTTAGCCTGGAAAACGCCCTCTACGCTCTCAGCGCTGTCGGCCATTTTACACTGGGCTGCGTGCTCGAGGACCAGGAGCACCAAGTGGCTAAAGAGAGCGGGAAACCCCTACCACCGATAGCATGCCCCCCCTGCTGAGACAAGCCATTGAGCTCTTTGATCATCAGGGAGCTGAACCCGCCTTCCTCTTTGGACTCGAACTCATTATTTGCGGACTCGAGAAGCAACTGAAATGCGAAAGCGGAAGCGCCTACTCCGGCTCCAGAGAATTTCGGTCCTACTAG
modifications: Codon-optomized TetR
expression of the TetR protein (TetR protein): significantly increased expression of the TetR protein

B4: H1-shRNA-p53-1: H1 promoter N19 shRNA converted from the p53-1 miRNA (nucleic acid)
DNA: GATCCCCAGTACGTGCACATAACAGACTTTCAAGAGAAGTCTGTTGTGCACGTACTTTTTTTGGAAA
knockdown compared to CMV-miR [3]: slight increase in knockdown
